Data set [1] in a line: Stability of the compound in 0.1 M NaOH in MeOH at 0.5 mg after 14 hrs by 1H-NMR spectroscopy. Format: physicochemical.
Data set [2] deals with HEK293. Briefly: Cytotoxicity against human HEK293 cells after 72 hrs by CellTiter blue staining based microscopic method. Format: cell-based. Particulars: HEK293, 72 h. (The colour change of resazurin is a common sign of viable cells or microbes.)
Data set [3] in a line: Stability of the compound in 0.1 M HCl in MeOH at 0.5 mg after 8 hrs by 1H-NMR spectroscopy. Format: physicochemical.
Data set [4] in a line: Stability of the compound in acetone irradiated with UV light at 1 mg after 2 to 72 hrs by 1H-NMR spectroscopy. Format: physicochemical.
A short description of data set [5]: Thermal stability of the compound in acetone under sunlight at 60 degreeC after 10 days. It is filed as physicochemical. The following applies: 240 h.
Data set [6] can be described thus: Stability of the compound in 0.1 M NaOH in MeOH at 0.5 mg after 2 hrs by 1H-NMR spectroscopy. It is filed as physicochemical.
The nature of data set [7]: Stability of the compound in 0.1 M HCl in MeOH at 0.5 mg after 2 hrs by 1H-NMR spectroscopy. Format: physicochemical.
The subject of data set [8] is L929. Briefly: Cytotoxicity against mouse L929 cells after 72 hrs by CellTiter blue staining based microscopic method. Format: cell-based. Particulars: L929, 72 h.
Data set [9] deals with A549. Briefly: Cytotoxicity against human A549 cells after 72 hrs by CellTiter blue staining based microscopic method. Format: functional, cell-based. Particulars: A549, 72 h.
A short description of data set [10]: Drug metabolism assessed as initial E/Zdouble-bond isomerization followed by photocyclization in acetone irradiated with UV light at 1 mg after 2 to 72 hrs by 1H-NMR spectroscopy. Format: physicochemical.
A short description of data set [11]: Stability of the compound in 1 N NaOH in water/0.1% Triton-X-100. Format: physicochemical. The following applies: buffer.
Data set [12] is described as follows: Thermal stability of the compound in acetone under sunlight at 60 degreeC after 1 day. Format: physicochemical. Particulars: 24 h.
Data set [13] is described as follows: Stability of the compound in 1 N HCl in water/0.1% Triton-X-100. Format: physicochemical. The following applies: buffer.
The subject of data set [14] is LOX IMVI. Briefly: Cytotoxicity against human LOXIMVI cells after 72 hrs by CellTiter blue staining based microscopic method. It is filed as functional, cell-based.
Data set [15] can be described thus: Stability of the compound in DMSO/EtOH at -20 degreeC assessed as decomposition up to 1 month. Format: physicochemical.
Data set [16] can be described thus: Drug metabolism assessed as compound decomposition in 0.1 M NaOH in MeOH at 0.5 mg after 14 hrs by 1H-NMR spectroscopy. The following applies: read-out: Drug metabolism. It is filed as physicochemical.
A short description of data set [17]: Drug metabolism assessed as compound decomposition in neat at room temperature up to 10 days. Particulars: read-out: Drug metabolism. It is filed as physicochemical.
Data set [18] is described as follows: Drug metabolism assessed as compound decomposition in 0.1 M HCl in MeOH at 0.5 mg after 8 hrs by 1H-NMR spectroscopy. Particulars: read-out: Drug metabolism. Format: physicochemical.
The nature of data set [19]: Solubility of the compound in water. Format: physicochemical. The following applies: buffer.
Data set [20] can be described thus: Drug metabolism assessed as E/Z double-bond isomerization by measuring delta4',5'-Z and delta4',5'-E isomers in acetone under sunlight at 60 degreeC after 1 day. Particulars: 24 h. It is filed as physicochemical.
Data set [21] is described as follows: Drug metabolism assessed as E/Z double-bond isomerization by measuring delta4',5'-Z and delta4',5'-E isomers in acetone under sunlight at 60 degreeC after 10 days. It is filed as physicochemical. Particulars: 240 h.
A short description of data set [22]: Drug metabolism assessed as compound decomposition in DMSO/EtOH at -20 degreeC after 3 years. It is filed as physicochemical. The following applies: read-out: Drug metabolism.
Data set [23] in a line: Solubility of the compound in water/0.1% Triton-X-100/NP-40. It is filed as physicochemical. Particulars: buffer.

Take `CC(/C=C/C(=O)O[C@H]1CCCC(=O)O[C@@H]([C@@H](C)C/C(C)=C/[C@@H](C)[C@H](O)C[C@@H](C)O)C/C=C(\C)C[C@@H]1C)=C\[C@H](C)C/C=C/C(C)=C/[C@H](O)[C@@H](O)C[C@H](C)O`: the Stability entry in data set [1], in [3], in [4], in data set [5], in data set [6] and in [7] was “Stable” each time. Moreover, the Stability entry in [11], in [12] and in data set [13] was “Stable” each time. Also, the half-inhibitory concentration (IC50) (in general, the concentration needed to halve the response being measured) was found to be 83 nM in data set [2], 63 nM in [8], 400 nM in [9] and 120 nM in data set [14]. Also, in [10], the Drug metabolism result is “Metabolite_Notdetected”.
As to `CC(=CC(/C)=C/C=C/C(C)=C/[C@H](O)[C@@H](O)C[C@H](C)O)/C=C/C(=O)O[C@H]1CCCC(=O)O[C@@H]([C@@H](C)C/C(C)=C/[C@@H](C)[C@H](O)C[C@@H](C)O)C/C=C(\C)C[C@@H]1C` (mixture of isomers), the half-maximal inhibitory concentration (IC50) in [2] came to 3.2 nM; in data set [8], 13 nM; in data set [9] it was 0.77 nM; in [14], 6.9 nM. Besides, the Stability result in data set [5], in data set [6], in data set [15], in [7], in [11] and in data set [12] was “Stable” throughout. Besides, the Stability entry in data set [13] is listed as “Stable”. Further, the degraded at 14 h in data set [16] turned out to be 90%. Besides, in data set [17], the degraded at 240 h was in the range of 20 to 30%. For the same molecule, the degraded at 8 h in data set [18] worked out at 80%. In addition, the solubility entry in data set [19] is listed as “Insoluble”; in [23], “Soluble”. Besides, the Drug metabolism entry in [10], in [20] and in [21] was “Metabolite_Detected” in each case. In data set [22], the degraded at 26298 h came out at 20%.
Consider `CC(/C=C/C(=O)O[C@H]1CCCC(=O)O[C@@H]([C@@H](C)C/C(C)=C/[C@@H](C)[C@H](O)C[C@@H](C)O)C/C=C(\C)C[C@@H]1C)=C\[C@@H](C)C/C=C/C(C)=C/[C@H](O)[C@@H](O)C[C@H](C)O`, for which the Stability result in data set [1], in data set [3], in data set [4], in data set [5], in data set [6] and in [7] was “Stable” throughout. Also, the Stability entry in data set [11], in data set [12] and in [13] was “Stable” in each case. Moreover, the IC50 turned out to be 3 nM in [2], 53 nM in data set [8], 77 nM in data set [9] and 29 nM in data set [14]. The Drug metabolism result in data set [10] was “Metabolite_Notdetected”.
